Test results from US20070043112A1, “Use of non-opiates for the potentation of opiates” (priority 2003, published 2007).

Assay: rat tail flick assay (nociceptive reaction latency)
Type: in vivo
Conditions: ifenprodil IN 1 mg/rat + morphine IP 6 mg/kg, given 30 min before the test, Student's t test P<0.05 vs morphine group
Method: In FIG. 1, results are expressed as mean±sem for 6 experiments, which are (from left to right): vehicle, morphine (6 mg/kg), vehicle, ifenprodil (1 mg/rat), vehicle IN+vehicle IP, and ifenprodil IN (1 mg/rat)+morphine IP (6 mg/kg). • vehicle: 90% saline 10% propylene glycol • vehicle and morphine were given intraperitoneally 30 min. before the test • vehicle and ifenprodil were given intranasally 30 min. before the test • n=10 rats per group • student's T test: * indicates a significant difference in comparison to the vehicle group for P<0.05 • student's T test: † indicates a significant difference in comparison to the morphine group for P<0.05

With `CC(C(O)c1ccc(O)cc1)N1CCC(Cc2ccccc2)CC1` (stereo not shown) [ifenprodil] the “potentiation of morphine analgesia (nociceptive reaction latency)” value was “potentiates morphine when administered intranasally”.
